This is an account of results in US7202048B2, “Onset of force development as a marker of thrombin generation” (Hemodyne, Inc., priority 2002, dated 2007).

Common to all, as to assay type: cell-based, human
The subject of assay [1] is normal whole blood. The assay is described as follows: Platelet contractile force (PCF) in batroxobin/calcium-clotted whole blood (Hemodyne). To be noted: for PCF: 1200 seconds. As to the method:
(§1) The patients and normal controls in this study were enrolled under a series of protocols approved by the Institutional Review Board for Human Studies of Virginia Commonwealth University. Written consent was obtained from each volunteer. Blood was obtained via aseptic venipuncture into evacuated tubes containing 3.2% sodium citrate.
(§2) Whole blood clot formation was induced by the addition of CaCl2 or a combination of CaCl2 and batroxobin (0.21 μg/ml). Platelet contractile force development and clot elastic modulus were measured for 1200 seconds.
The Hemodyne® hemostasis analyzer (Hemodyne, Inc., Richmond, Va., USA) measures forces generated by platelets within a clot formed between a thermostated cup and parallel upper plate (7,8). Before clotting, the upper plate is centered above the cup and lowered into the sample. As the clot forms, it attaches to the inner walls of the cup and the bottom of the upper plate. The entire sample volume is contained between the upper and lower surfaces. Once fibrin is formed, platelets within the network pull fibrin strands inward transmitting force through the network to the surfaces to which the clot is adherent. Force measurement is accomplished utilizing a transducer coupled to the upper plate. As platelets contract, the transducer produces an electrical output proportional to the amount of force generated. The transducer output is continuously recorded.

The test system of assay [2] is normal whole blood. The assay is described as follows: Thrombin generation time (TGT), onset of PCF after calcium and batroxobin. How it is done:
FIG. 1. Determination of the thrombin generation time (TGT) from the kinetics of platelet contractile force (PCF) development after addition of calcium (10 mM final) and batroxobin (0.21 μg/ml final) to 700 μl of citrated (3.2%) whole blood at time zero. The TGT is taken to be the initial inflection point of the PCF curve, ie. the moment the PCF first begins to increase.
as §1, §2
Citrated blood clotted with batroxobin, or other similar enzymes (e.g., reptilase), and calcium develops PCF. […] During this time period, thrombin is generated by re-calcification. Since the fibrin network is in place prior to the generation of thrombin, PCF becomes apparent as soon as a small amount of thrombin is generated (FIG. 1). Thus, the inflection or take off point in the PCF curve serves as a marker of thrombin generation in the batroxobin mediated assay. For ease in identification, the first derivative of the curve in FIG. 1 will provide a sharp break where the curve increases (TGT being at the spike). The instrumentation used for the analysis, such as that shown in FIG. 9, can provide the output of FIG. 1 or the first derivative for identification of TGT, or, alternatively, the output could simply be an indicator light array indicating when the TGT is in the normal range or outside of the normal range.
We designate the time between calcium addition and initial PCF development the Thrombin Generation Time (TGT). Similar results can be obtained without using a snake venom enzyme if one simply recalcifies the plasma sample. Since thrombin generation must be followed by fibrin clot formation before PCF can begin to occur in the recalcification assay, the lag phase tends to be longer and more variable. Similar assays termed reptilase clot retractions were shown in the early seventies to be sensitive to a variety of antiplatelet and anticoagulant agents (10).

Assay [3] relates to normal whole blood. The assay is described as follows: Clot elastic modulus (CEM) in batroxobin/calcium-clotted whole blood (Hemodyne). The following applies: 1200 seconds. As to the method: as §1, §2
Clot elastic modulus was measured by applying a downward force of known magnitude to the upper plate of the Hemodyne apparatus (9). The amount of downward displacement caused by the force was measured. The ratio of downward force (stress) to downward displacement (strain) was used to calculate the elastic modulus. Stress equals the force applied divided by the area of application and strain is the degree of shape change induced by the applied force.

The mark [4] stands for this setting: 0.165 U/ml added to normal whole blood.
Where [5] appears, read: 0.330 U/ml added to normal whole blood.
[6] abbreviates: 0.660 U/ml added to normal whole blood.
Setting [7] is: 1.320 U/ml added to normal whole blood.
Where [8] appears, read: increasing concentrations in normal whole blood.
Where [9] appears, read: bivalirudin 3.5 μg/ml in normal whole blood.

Entries after “also recorded” stand apart in the source; their conditions may differ.

Hirudin: the PCF in assay [1] (setting [4]) worked out at 4.01 Kdynes; in assay [1] (setting [5]), 3.57 Kdynes; in assay [1] (setting [6]) it was 1.80 Kdynes; in assay [1] (setting [7]), 0.70 Kdynes. Besides, the “Effect on PCF” value in assay [1] (setting [8]) is given as “declines; also recorded: reduction”. Further, the TGT in assay [2] (setting [4]) is 420 s; in assay [2] (setting [5]), 480 s; in assay [2] (setting [6]), 560 s; in assay [2] (setting [7]) it was >1200 s. Besides, in assay [2] (setting [8]), the “Effect on TGT” value was “prolongs; also recorded: dose depend prolongation”. Also, the CEM in assay [3] (setting [4]) is 12.34 Kdynes/cm^2; in assay [3] (setting [5]), 11.21 Kdynes/cm^2; in assay [3] (setting [6]), 6.50 Kdynes/cm^2; in assay [3] (setting [7]), 0.73 Kdynes/cm^2.

In the case of bivalirudin, the “Effect on PCF” value in assay [1] (setting [9]) is listed as “lower; also recorded: decreases”. In addition, the “Effect on TGT” value in assay [2] (setting [9]) was “prolongs”.
